The values below come from article PMC12040169 (PLOS Biology, 2025).

The series can be described thus: in vitro. To be noted: human, hela cells, % viability.

Each structure is given as a SMILES string.

Take `CN(C(=O)CN1CCCCC1Cn1cccn1)C1(C#N)CCCCC1` (stereo not drawn) [CBK305412]: the viability (commonly a read-out of living cells in per cent, often relative to untreated cells) at 28.5 h, 10 µM amounted to 90.1%.

Turning to `COc1ccccc1-c1nc2ccccn2c1CO` [CBK173210], the viability at 28.5 h, 10 µM was determined as 113%. Under `CC(=O)Nc1ccc(S(=O)(=O)N2CCC(n3c(=O)[nH]c4ccccc43)CC2)cc1` [CBK149696] stands 92.3%; under `CCCC(=O)c1ccc(S(=O)(=O)N2CCCN(Cc3c(-c4ccccc4)nc4sccn34)CC2)cc1` [CBK062912], 119%; under `COC(=O)c1ccc(-c2cnc(OCC3CCN(C(=O)OC(C)(C)C)CC3)nc2)nc1` [CBK170130], 101%. The result for `Cc1cc(C[C@@H]2COC[C@H]2NCc2c(F)cccc2Cl)on1` [CBK282994] reads 83.4%; that for `CCOC(=O)c1ccc(NS(=O)(=O)c2cc(Cl)ccc2Cl)cc1` [CBK077746], 88.4%; that for `CCOC(=O)c1ccccc1NS(C)(=O)=O` [CBK262271], 101%.

Consider `COc1ccc(OC(C)C(=O)O/N=C(\N)c2ccccn2)cc1` (stereo not drawn) [CBK266669], for which the viability at 28.5 h, 10 µM turned out to be 100%. In the case of `CCCc1cc(C(=O)NCCCN)cc(CCC)c1OCc1ccccc1` [CBK001736C], the viability at 28.5 h, 10 µM turned out to be 114%.

As to `O=S1(=O)CCN(Cc2cn(-c3ccccc3)nn2)CC1` [CBK113103], the viability at 28.5 h, 10 µM worked out at 88.9%. The result for `CCc1nc2ccc(C(=O)NCCOc3ccc(OC)cc3)cn2c1N(C)CC` [CBK145504] reads 91.9%; that for `COc1cccc(NC(=O)CSc2nnc(-c3ccccc3O)n2-c2ccccc2)c1` [CBK268343], 108%. Under `COc1cc(Nc2cccc3c2C(=O)c2ccccc2C3=O)c(OC)cc1C=O` [CBK262677] stands 109%; under `Cc1nc2ncnn2c(C)c1CCC(=O)OCc1ccc(C#N)cc1` [CBK305838], 83.7%; under `CC1=NN(c2ccc(S(N)(=O)=O)cc2)C(=O)/C1=C\c1ccc(-c2cc([N+](=O)[O-])ccc2C)o1` [CBK263460], 106%. The result for `Cc1sc(-c2cnccn2)nc1O` [CBK067738] reads 97.3%; that for `O=C(c1ccc(-c2ccc(OCC3CCN(c4ncccn4)CC3)cn2)cc1)N1CCOCC1` [CBK173183], 91.8%. For the molecule `COc1ccc(C2=NN(C(=O)CCCC(=O)O)C(c3ccc4nccnc4c3)C2)cc1OC` (stereo not drawn) [CBK297785], the viability at 28.5 h, 10 µM amounted to 84.2%. Under `O=C(O)C[C@]1(C(=O)NC2CCCCCC2)CC(c2ccc(Cl)cc2)=NO1` [CBK286716] stands 92.3%; under `CCNC(=O)C1CCCN(Cc2ncc(C)c(OC)c2C)C1` (stereo not drawn) [CBK305081], 78%; under `O=C(CCCN1C(=O)/C(=C\c2cccs2)SC1=S)Nc1cccc(C(=O)O)c1` [CBK263636], 98.4%. As to `Cc1oc(NC(=O)CN2CCN(c3ncccn3)CC2)c(C#N)c1C` [CBK305569], the viability at 28.5 h, 10 µM was determined as 94.6%. The result for `CC(O)CNCCNc1c(Cl)cccc1[N+](=O)[O-]` (stereo not drawn) [CBK262802C] reads 98.8%; that for `O=C(NCc1ccc2c(c1)OCO2)c1cncc(-c2ccc(C(=O)N3CCOCC3)cc2)c1` [CBK158614], 108%. Under `CC1(C)C2C(=O)C(c3ccccn3)=C(N)N2C(C)(C)C1(C)C` (stereo not drawn) [CBK022153] stands 110%; under `CSc1nc2ccc(NC(=O)CSc3nnnn3-c3ccccc3)cc2s1` [CBK263549], 88.3%; under `O=C(Nc1cccc(NC(=S)NC(=O)c2ccc(Cl)cc2Cl)c1)c1ccccc1F` [CBK264828], 107%. For the molecule `CCN(CC)C(=O)C1CCCN(C(=O)NCc2cc(C)on2)C1` (stereo not drawn) [CBK156114], the viability at 28.5 h, 10 µM came to 89.5%. The result for `Cc1cc(C)cc(-c2ccc(CC3(C(=O)NCC4CCCOC4)CCOCC3)cc2)c1` (stereo not drawn) [CBK286524] reads 96.5%. The result for `Cc1cc(N(C)Cc2ccccc2Br)nc(N)n1` [CBK297753] reads 70.2%; that for `Cc1cc(NC(=O)c2ccc3[nH]ccc3c2)c2ccccc2n1` [CBK116270], 104%; that for `O=C(CSc1n[nH]c(=O)n1C1CCCCC1)NCc1ccc(N2CCCC2=O)cc1` [CBK299785], 105%. With `Cc1oc(CC(C)C)c(CN2CCCCC2)c1C(=O)O` [CBK265448C], the viability at 28.5 h, 10 µM came to 113%. Turning to `Cc1cccc(-n2ncc3c(=O)n(CC(=O)Nc4ccccc4)cnc32)c1C` [CBK287693], the viability at 28.5 h, 10 µM came out at 95.1%. Under `O=C(O)c1cccc(CSc2nnc(Cc3ccccc3)[nH]2)c1` [CBK268029] stands 94.1%; under `Nc1ccc(-c2cn3ccnc3c(Nc3ccc(Cl)cc3)n2)cc1` [CBK066453], 87%; under `Cc1cccc(-c2noc([C@@H]3C[C@@H](O)CN3Cc3ccccn3)n2)c1` [CBK288837], 98.2%. The result for `O=C(Cn1nnc(-c2ccccc2)n1)Nc1cccc([N+](=O)[O-])c1` [CBK263057] reads 97.9%; that for `O=C(Cc1ccc(F)cc1)N1CCC(n2cnc3cccnc32)CC1` [CBK283574], 91.1%; that for `Cc1cccc(-n2nnnc2SC(C)C(=O)O)c1` (stereo not drawn) [CBK287003], 90.1%. For `CCC1(CC)OC(NC2CCCc3ccccc32)=NC1=O` (stereo not drawn) [CBK126555], the viability at 28.5 h, 10 µM is 99.1%. Under `CN(Cc1ccccc1)c1nccnc1-c1ccccc1Cl` [CBK037502] stands 103%. Under `COc1cccc(NC(=O)CSCc2n[nH]c(=O)[nH]2)c1` [CBK266058] stands 95.8%; under `O=C1CCC(=O)N1CCOc1nccnc1OC1CCN(CCCn2c(=O)[nH]c3ccccc32)CC1` [CBK084350], 90.2%.

For the molecule `O=C(Cc1cccc(F)c1)N1CCC(O)(c2ccccn2)CC1` [CBK283586], the viability at 28.5 h, 10 µM is 100%. Turning to `O=C(c1nccs1)C1CCN(C(=O)Cc2ccsc2)CC1` [CBK284176], the viability at 28.5 h, 10 µM was 95.5%. The result for `O=C(N/N=C/c1ccc(N2N=C(c3ccc(Cl)cc3)CC2c2ccc(Cl)cc2)cc1)c1cccnc1` (stereo not drawn) [CBK262494] reads 103%; that for `COc1cc2nc3c4ccccc4n(CC(=O)O)c3nc2cc1OC` [CBK263626], 86.8%; that for `CC(C)Nc1cncc(OCCCc2ccncc2)n1` [CBK115881], 90.6%.

For the molecule `COc1ccccc1N1C(=O)CC(N2CCC(C(N)=O)(N3CCCCC3)CC2)C1=O` (stereo not drawn) [CBK265533], the viability at 28.5 h, 10 µM amounted to 84.3%. On to `Cc1cc(C)c(NC(=O)CSc2nc(C)c(Cc3ccccc3Cl)c(O)n2)c([N+](=O)[O-])c1` [CBK268693], for which the viability at 28.5 h, 10 µM amounted to 90.4%. The result for `O=S(=O)(NC[C@H]1C[C@@H]2CC[N@]1C[C@@H]2CN1CCOCC1)c1cccs1` [CBK288759] reads 90.7%; that for `O=C(CN1CCN(c2ccccn2)CC1)N1c2ccccc2CCc2ccccc21` [CBK268868G], 98.4%. Under `CC1(C(=O)O)NC(c2ccccc2O)C2C(=O)N(Cc3ccccc3)C(=O)C21` (stereo not drawn) [CBK218007] stands 90.6%.

In the case of `O=C(O)CSc1ccccc1[N+](=O)[O-]` [CBK111324], the viability at 28.5 h, 10 µM came to 86.8%. Consider `COc1ccc([C@@]23CC[C@@H](NC(=O)Nc4ccc(OC(F)(F)F)cc4)C[C@@H]2N(C)CC3)cc1OC` [CBK036455T], for which the viability at 28.5 h, 10 µM was 82.2%. The result for `CCOC(=O)Cc1ccc(Nc2cc(-c3ccc(N(C)C)cc3)ncn2)cc1` [CBK090712] reads 31.6%; that for `CN(C)CC1CN(C(=O)Nc2ncc(Cc3ccccc3Cl)s2)CCO1` (stereo not drawn) [CBK304107], 93.6%. As to `CC(C)(C)c1ccnc(N[C@H]2CO[C@H]3[C@@H]2OC[C@@H]3NC(=O)NCc2ccccc2)n1` [CBK289522], the viability at 28.5 h, 10 µM is 87.3%. With `CC(C)N(CC(=O)N(c1ccccc1)c1ccccc1)C(C)C` [CBK013303C], the viability at 28.5 h, 10 µM worked out at 96.6%. The result for `O=C(Nc1nc2ccccc2[nH]1)c1ccncc1` [CBK288626] reads 95.3%; that for `CN(C)S(=O)(=O)c1cc(C(=O)NCCc2c[nH]c3ccccc23)c(Cl)cc1Cl` [CBK265883], 87.5%; that for `Cc1[nH]c2c(C(=O)O)cccc2c1-c1ccccc1` [CBK012486], 103%. Under `CCSC1=C(C#N)C(=O)NC(c2ccccc2O)S1` (stereo not drawn) [CBK293971] stands 109%; under `O=C(NCCOc1ccccc1)N1CCN(c2ccccc2)CC1` [CBK155198], 88.5%.

With `NC(=O)CCC(=O)N1CCC2(C/C=C/CCOc3ccccc3C(=O)NCCCNC2=O)CC1` [CBK292059], the viability at 28.5 h, 10 µM came to 91.7%. The result for `CC(C)CC(=O)N1CCC(Cc2ccccc2-c2cccs2)(C(=O)NC(C)C)CC1` [CBK285898] reads 87.3%. For the molecule `O=C(O)C1CCCN1S(=O)(=O)c1ccc(Cl)cc1` (stereo not drawn) [CBK261249], the viability at 28.5 h, 10 µM was 88.1%. Take `CN(C)c1ccc(C(=O)N2CCC(c3cc4ncccc4[nH]3)CC2)cc1` [CBK284459]: the viability at 28.5 h, 10 µM was determined as 93.3%. The result for `COc1ccc2[nH]c(CN3CCCC(c4nc(C)n[nH]4)C3)c(C)c2c1` (stereo not drawn) [CBK306904] reads 101%; that for `O=C(CN1CCN(c2cc(-c3ccc4ccccc4c3)ncn2)CC1)N1CCCC1` [CBK091064], 104%; that for `CNC(=O)C1(Cc2ccccc2-c2cccs2)CCN(C(=O)Cc2ccccc2)CC1` [CBK285746], 90.8%. For `CC1(C)SC(c2ccc(F)cc2)N[C@H]1C(=O)O` (stereo partly drawn) [CBK025917], the viability at 28.5 h, 10 µM came to 91.4%. The result for `CN(C)c1ccc(C=Nc2ccc(NC(=O)CCC(=O)O)cc2)cc1` [CBK296091] reads 92%; that for `Cc1cc(F)ccc1NC(=O)c1n[nH]cc1Cl` [CBK288020], 92.4%.

For `O=C(NCc1cccnc1)c1ccc(-c2cccc(Cl)c2Cl)o1` [CBK112211], the viability at 28.5 h, 10 µM is 102%. Under `COC(=O)c1sccc1NC(=O)Cc1ccccc1[N+](=O)[O-]` [CBK268146] stands 98.7%.
